# Data: patent US20110028566A1, “COMPOSITIONS AND PRODUCTS CONTAINING CYCLOALIPHATIC DIOL ANTIMICROBIAL AGENTS AND METHODS OF USING THE COMPOSITIONS AND PRODUCTS” (EASTMAN CHEMICAL COMPANY, priority 2009, published 2011)
# Several values for one entry are separate records, joined by “and”; a condition that tells them apart may be missing. Identical values can stand only once.
# Legend:
# Experiment in all cases: MIC determination and synergy testing (Kull synergy index), microplate
# Format in all cases: cell-based
# [1] = tested on: Aspergillus niger ATCC 16404
# Method: The test cultures are listed in Table 7 along with the incubation temperatures used for growth and minimum inhibitory concentration (MIC) testing. […] C. albicans was cultured in Sabouraud dextrose broth (SDB) for approximately 44-52 hours for preparation of inoculum. A. niger was cultured on Sabouraud dextrose agar (SDA) for 3-4 days until there was confluent growth and visible spore formation. Spores were harvested from the SDA plates by flooding the surface of the plate with 5-10 mL of phosphate-buffered saline (PBS) and gently spreading the liquid across the surface of the plate with a sterile T-shaped plastic spreader (Copan Diagnostics) until there was a well-mixed suspension of spores. The resulting spore suspension was collected using a serological pipette and stored at 2-8° C. until use.
# Inoculum concentration was determined by dilution plating of the cultures or spore suspension. A serial dilution in PBS was made to 10^−8 for the bacterial cultures or 10^−5 for the fungal cultures. Fifty or 100 μL of the final dilution was spread on two Trypticase-soy agar (TSA) plates for bacteria or two SDA plates for fungi. After 24 to 48 hours plates were counted and the concentrations used in each experiment were calculated.
# The A. niger spore suspensions were concentrated to a level of 1-2×10^8 spores/mL by centrifugation and resuspension in a portion of the resulting supernatant.
# The antimicrobial agents tested for synergy along with the respective diluents and working stock solution concentrations are shown below. For determination of MIC ranges, individual antimicrobial agent stock solutions were added to sterile medium to yield the highest level test concentrations, and then serially diluted in the medium to prepare the range of test concentrations. For synergy testing individual test concentrations were prepared in sterile medium, and then blended to form the desired combinations.
# MICs were determined using a high-throughput microplate method. Individual antimicrobial agents were added to TSB (pH 7.3) for bacterial testing or SDB (pH 5.6) for fungal testing at the highest concentration to be tested. A serial dilution series was prepared at a dilution ratio of 1:1.3333 such that a one log range was covered in nine dilutions. Two-hundred microliters of the diluted antimicrobial agents were dispensed into four wells each of a sterile, 96-well, flat-bottom microplate (Nalge Nunc International). Four additional wells of the highest concentration were dispensed to serve as uninoculated high-level controls. Eight additional wells containing only broth medium were also prepared, four to serve as negative controls and four as positive controls. Three wells of each antimicrobial agent dilution were inoculated with one of the test strains in Table 7. The final well of each antimicrobial agent dilution was left uninoculated to serve as a control (and means of compensating) for any absorbance/turbidity due to the test compounds.
# Microplates were inoculated using the cultures or spore suspensions prepared as described above. The S. aureus cultures were used undiluted, while the E. coli and P. aeruginosa cultures were used either undiluted or after a 1:2 dilution in sterile TSB. The C. albicans cultures were used either undiluted or following a 2-fold concentration by centrifugation. One of two means of inoculation was used to deliver a final concentration of approximately 10^5 colony-forming units (CFU)/mL of C. albicans, 10^5 spores/mL of A. niger, or 10^6 CFU/mL of bacteria. The primary method used a stainless steel pin replicator (Nalge Nunc International) mounted on a hand-operated bench-top press (Schmidt Technology Corporation) fitted with a custom-built microplate holder to dispense one microliter of each inoculum from a “master” plate containing 50-100 μL of culture into the wells of the test plate. The pin replicator was sterilized before and between inoculations by immersing in ethanol and flaming. […]
# [2] = tested on: Pseudomonas aeruginosa ATCC 27853; settings: for QA, MIC of CHDM alone: plate 169E (CG series)
# How it was run: (§1)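 Broth microdilution in TSB (pH 7.3) for bacteria or SDB (pH 5.6) for C. albicans, 1:1.3333 serial dilutions covering one log in nine steps, agents alone or blended for synergy; triplicate wells inoculated to ~10^6 CFU/mL bacteria or ~10^5 CFU/mL yeast; uninoculated wells correct compound turbidity.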
# [3] = tested on: Staphylococcus aureus ATCC 25923; settings: for QA, MIC of CHDM alone / QA/a: concentration of CHDM alone (QA, MIC): S. aureus; for QA/a: concentration of CHDM alone (QA, MIC): Table 49
# How it was run: as §1
# [4] = A. niger, plate 154C, day 3, MP and CHDM
# [5] = P. aeruginosa, plate 126E, day 2, PE and CHDM
structure (smiles),measurement,setting,value
"CCCCCCC(O)CO (stereo not drawn) [CG, 1,2-octanediol]","Synergism of antimicrobial agent in combination with 1,4-CHDM for A. niger (in words; in the 12th table the cell names the organism and table number)","[1]; Kull synergy index, synergistic when at least two results SI<1",A. niger (14)
"OCC1CCC(CO)CC1 (stereo not drawn) [1,4-CHDM, 1,4-cyclohexanedimethanol]","QA, MIC of CHDM alone","[1]; A. niger, day 2 of incubation, plates 123C, 217C (CG series)",4.50 weight percent and 3.11 weight percent
same,"QA, MIC of CHDM alone","[1]; A. niger, day 3 of incubation, plate 123C (CG series)",3.11 weight percent
same,"QA/a: concentration of CHDM (MIC alone, or in the combination at an inhibitory concentration)",[1]; [4],2.03 weight percent
same,SI (synergy index),[1]; [4],1.00
same,QA/a,"[1]; CHDM alone (QA) or in combination with DMDM hydantoin (a), plate 196C, day 3",2.78
same,QA/a,"[1]; CHDM alone (QA) or in combination with IPBC (a), plate 259C, day 2",5.00
same,QA/a,"[1]; CHDM alone (QA) or in combination with IPBC (a), plate 260C, day 3",6.50
same,QA/a,"[1]; CHDM: MIC alone (QA) or conc. in combination with BA:DHA (a), plate 195C, day 2",4.93
same,QA/a,"[1]; CHDM: MIC alone (QA) or conc. in combination with BA:DHA (a), plate 195C, day 3",4.93
same,QA/a,"[1]; CHDM: MIC alone (QA) or conc. in combination with BA:DHA (a), plate 215C, day 2",4.50
same,QA/a,"[1]; CHDM: MIC alone (QA) or conc. in combination with BA:DHA (a), plate 215C, day 3",4.50
same,QA/a,"[1]; CHDM: MIC alone (QA) or conc. in combination with CP (a), plate 194C, day 2",3.70
same,QA/a,"[1]; CHDM: MIC alone (QA) or conc. in combination with CP (a), plate 194C, day 3",2.78
same,QA/a,"[1]; CHDM: MIC alone (QA) or conc. in combination with MIT (a), plate 193C, day 2",4.93
same,QA/a,"[1]; CHDM: MIC alone (QA) or conc. in combination with MIT (a), plate 193C, day 3",2.78
same,QA/a,"[1]; CHDM: MIC alone (QA) or conc. in combination with MIT (a), plate 214C, day 2",4.50
same,QA/a,"[1]; CHDM: MIC alone (QA) or conc. in combination with MIT (a), plate 214C, day 3",6.00
same,QA/a,"[2]; CHDM alone (QA) or in combination with BA:DHA (a), plate 149E, day 1",1.31
same,QA/a,"[2]; CHDM alone (QA) or in combination with BA:DHA (a), plate 149E, day 2",1.75
same,QA/a,"[2]; CHDM alone (QA) or in combination with DMDM hydantoin (a), plate 150E, day 1",1.31
same,QA/a,"[2]; CHDM: MIC alone (QA) or conc. in combination with CP (a), plate 148E, day 1",1.31
same,QA/a,"[2]; CHDM: MIC alone (QA) or conc. in combination with MIT (a), plate 147E, day 1",1.31
same,QA/a,"[2]; CHDM: MIC alone (QA) or conc. in combination with MIT (a), plate 147E, day 2",2.33
same,QA/a,"[2]; CHDM: MIC alone (QA) or conc. in combination with MIT (a), plate 210E, day 1",1.75
same,QA/a,"[2]; CHDM: MIC alone (QA) or conc. in combination with MIT (a), plate 210E, day 2",1.75
same,QA/a,"[2]; CHDM: MIC alone (QA) or conc. in combination with MIT (a), plate 249E, day 1",1.80
same,QA/a,"[2]; CHDM: MIC alone (QA) or conc. in combination with MIT (a), plate 249E, day 2",1.80
same,QA/a,"[2]; CHDM: MIC alone (QA) or conc. in combination with MP (a), plate 146E, day 1",1.31
same,"QA, MIC of CHDM alone","[2]; P. aeruginosa, day 1 of incubation",1.31 weight percent
same,"QA, MIC of CHDM alone","[2]; P. aeruginosa, day 2 of incubation",1.75 weight percent
same,"QA, MIC of CHDM alone","[2]; P. aeruginosa, day 3 of incubation",1.75 weight percent
same,"QA/a: concentration of CHDM (MIC alone, or in the combination at an inhibitory concentration)",[2]; [5],1.75 weight percent
same,SI (synergy index),[2]; [5],1.00
same,"QA/a: concentration of CHDM alone (QA, MIC)","[2]; Table 43, P. aeruginosa, Day 1",1.31 weight percent and 1.35 weight percent
same,"QA/a: concentration of CHDM alone (QA, MIC)","[2]; Table 43, P. aeruginosa, Day 2",1.75 weight percent and 1.80 weight percent and 1.35 weight percent
same,"QA/a: concentration of CHDM alone (QA, MIC)","[2]; Table 45, P. aeruginosa, Day 1",1.31 weight percent and 1.35 weight percent and 1.80 weight percent
same,"QA/a: concentration of CHDM alone (QA, MIC)","[2]; Table 45, P. aeruginosa, Day 2",2.33 weight percent and 1.75 weight percent and 1.80 weight percent
same,"QA/a: concentration of CHDM alone (QA, MIC)","[2]; Table 48, P. aeruginosa, Day 1",1.75 weight percent and 1.31 weight percent
same,"QA/a: concentration of CHDM alone (QA, MIC)","[2]; Table 48, P. aeruginosa, Day 2",2.33 weight percent and 1.75 weight percent
same,QA/a,"[3]; CHDM alone (QA) or in combination with BA:DHA (a), plate 139D, day 1",3.11
same,QA/a,"[3]; CHDM alone (QA) or in combination with BA:DHA (a), plate 139D, day 2",4.15
same,QA/a,"[3]; CHDM alone (QA) or in combination with BA:DHA (a), plate 220D, day 1",3.30
same,QA/a,"[3]; CHDM alone (QA) or in combination with BA:DHA (a), plate 220D, day 2",3.30
same,QA/a,"[3]; CHDM alone (QA) or in combination with BA:DHA (a), plate 235D, day 1",5.00
same,QA/a,"[3]; CHDM alone (QA) or in combination with BA:DHA (a), plate 235D, day 2",5.00
same,QA/a,"[3]; CHDM: MIC alone (QA) or conc. in combination with CP (a), plate 138D, day 1",3.11
same,QA/a,"[3]; CHDM: MIC alone (QA) or conc. in combination with CP (a), plate 138D, day 2",4.15
same,QA/a,"[3]; CHDM: MIC alone (QA) or conc. in combination with MIT (a), plate 137D, day 2",4.15
same,QA/a,"[3]; CHDM: MIC alone (QA) or conc. in combination with MP (a), plate 166D, day 1",3.30
same,QA/a,"[3]; CHDM: MIC alone (QA) or conc. in combination with MP (a), plate 166D, day 2",3.30
same,"QA, MIC of CHDM alone","[3]; day 1 of incubation, plate 125D (CG series)",3.11 weight percent
same,"QA, MIC of CHDM alone","[3]; day 1 of incubation, plates 124D, 219D, 234D (PE series)",3.30 weight percent and 3.75 weight percent and 3.11 weight percent
same,"QA, MIC of CHDM alone","[3]; day 2 of incubation, plate 125D (CG series)",3.11 weight percent
same,"QA, MIC of CHDM alone","[3]; day 2 of incubation, plates 124D, 219D (PE series)",3.11 weight percent and 3.30 weight percent
same,"QA/a: concentration of CHDM alone (QA, MIC)",[3]; Day 1,3.11 weight percent
same,"QA/a: concentration of CHDM alone (QA, MIC)",[3]; Day 2,4.15 weight percent
